Test results taken from the supplement of paper PMC10307832.

Tests used:
Test in all cases: relative viability (nuclei count vs DMSO), 5 days (fraction); higher = more cells survive
[1] = compound: C=CC(=O)N1CCC[C@@H](n2nc(-c3ccc(Oc4ccccc4)cc3)c3c(N)ncnc32)C1 [Ibrutinib]
In short: (§1)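 Viability here means nuclei in treated wells divided by nuclei in vehicle wells, reported as the median across plates. Only plates with control CV below 25% and at least one doubling passed. Lung cancer cell lines in 1536-well plates were exposed to five √10-spaced library-drug doses for 5 days and counted from 4× Hoechst images in MetaXpress.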

[2] = compound: C=CC(=O)Nc1cc(-n2c(=O)ccc3cnc4ccc(-c5ccc(NS(C)(=O)=O)cc5)cc4c32)ccc1C [BMX-IN-1]
In short: as §1

[3] = compound: C=CCc1cccc(/C=N/NC(=O)CN2CCN(Cc3ccccc3)CC2)c1O [PAC-1]
In short: as §1

[4] = compound: C=CCc1cccc(/C=N/NC(=O)CN2CCN(Cc3ccccc3)CC2)c1O [PAC-1] + COc1cc2c(Oc3ccc(NC(=O)C4(C(=O)Nc5ccc(F)cc5)CC4)cc3F)ccnc2cc1OCCCN1CCOCC1 [Foretinib] (partner 0.25 µM)
In short: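 Lung cancer cell lines in 1536-well plates got either a single drug or a fixed anchor-drug dose together with five library-drug doses (not always all listed) in √10 steps, by pin tool, on the day after seeding. Nuclei were counted after 5 days, and relative viability is the treated-to-vehicle ratio of nuclei counts. Values are medians of duplicate plates.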

Row | Cell Line | relative viability ([1]; 0.005 µM) | relative viability ([1]; 0.01581 µM) | relative viability ([1]; 0.05 µM) | relative viability ([1]; 0.1581 µM) | relative viability ([1]; 0.5 µM) | relative viability ([2]; 0.02 µM) | relative viability ([2]; 0.2 µM) | relative viability ([2]; 0.6325 µM) | relative viability ([2]; 2 µM) | relative viability ([3]; 0.02 µM) | relative viability ([3]; 0.06325 µM) | relative viability ([3]; 0.2 µM) | relative viability ([3]; 2 µM) | relative viability ([4]; first compound 0.02 µM) | relative viability ([4]; first compound 0.06325 µM) | relative viability ([4]; first compound 0.2 µM) | relative viability ([4]; first compound 2 µM)
1 | NCI-H460 | 1.07 | 0.922 | 0.979 | 0.917 | 1.02 | 1.24 | 1.09 | 1.04 | 1.07 | 0.979 | 0.966 | 0.934 | 1.07 | 1.08 | 0.915 | 0.954 | 0.959
2 | NCI-H520 | 0.874 | 0.791 | 0.991 | 1 | 0.839 | 1.26 | 1.02 | 1.1 | 1.04 | 0.964 | 0.957 | 0.899 | 0.99 | 0.818 | 0.769 | 0.682 | 0.723
3 | NCI-H596 | 0.74 | 0.965 | 0.939 | 0.837 | 0.858 | 1.12 | 0.951 | 1.02 | 0.96 | 1 | 0.937 | 1.07 | 1.05 | 0.767 | 0.832 | 0.876 | 0.894
4 | NCI-H647 | 0.724 | 0.855 | 0.86 | 0.876 | 0.879 | 1.32 | 1.07 | 0.957 | 0.96 | 0.985 | 0.995 | 0.892 | 0.933 | 1.17 | 1.08 | 1.29 | 1.31
5 | NCI-H650 | 0.772 | 0.991 | 0.802 | 1.05 | 1.01 | 0.905 | 1.01 | 1.02 | 0.951 | 0.976 | 0.966 | 0.891 | 0.872 | 1.08 | 1.07 | 0.992 | 0.988
6 | NCI-H661 | 0.95 | 0.957 | 0.868 | 0.96 | 0.601 | 0.967 | 1.03 | 1.01 | 0.933 | 0.977 | 0.981 | 0.965 | 0.959 | 1.05 | 0.963 | 0.967 | 0.957
7 | NCI-H727 | 0.857 | 0.912 | 0.902 | 0.61 |  | 1 | 1.14 | 0.964 | 0.94 | 0.968 | 1.15 | 0.944 | 0.916 | 0.811 | 1.02 | 0.937 | 0.881
8 | NCI-H838 | 0.923 | 0.893 | 0.986 | 0.938 | 0.948 | 1.25 | 0.957 | 1.02 | 0.989 | 0.96 | 0.989 | 0.9 | 0.983 | 1.06 | 0.953 | 1.01 | 1.06
9 | NCI-H1299 | 1.02 | 1.01 | 1.05 | 1.01 | 1.05 | 1.09 | 1.08 | 1.07 | 1.06 | 1.03 | 0.979 | 1 | 1.01 | 1.14 | 1.04 | 1.04 | 1.06
